This series has as its target HBV. The settings on record: ASO.

Several values for one entry are separate records, joined by “and”; a condition that tells them apart may be missing. Equal values may be shown once. HELM strings list units from the 5' end as sugar, base in round brackets, then linkage (d deoxyribose, r ribose, m 2'-O-methyl, p phosphodiester). Methylation of C is not given here. [moe] = 2'-O-(2-methoxyethyl) (MOE); [cEt] = constrained ethyl (cEt); [sp] = phosphorothioate linkage

With “RNA1{[moe](A)[sp].[moe](A)[sp].[moe](G)[sp].d(C)[sp].d(G)[sp].d(A)[sp].d(A)[sp].d(G)[sp].d(T)[sp].d(G)[sp].d(C)[sp].d(A)[sp].[moe](C)[sp].[moe](A)[sp].[moe](C)[sp].[moe](G)[sp].[moe](G)}$$$$V2.0”, under “HepG2, 0.07 µM”, the target mRNA inhibition was 81% and 73%.

“RNA1{[moe](A)[sp].[moe](A)[sp].[moe](G)[sp].d(C)[sp].d(G)[sp].d(A)[sp].d(A)[sp].d(G)[sp].d(T)[sp].d(G)[sp].d(C)[sp].d(A)[sp].d(C)[sp].[cEt](A)[sp].[cEt](C)[sp].[cEt](G)}$$$$V2.0”: where the note is “HepG2, 0.07 µM”, the target mRNA inhibition is 70% and 63%.

In the case of “RNA1{[moe](A)[sp].[moe](A)[sp].[moe](T)[sp].[moe](T)[sp].d(T)[sp].d(A)[sp].d(T)[sp].d(G)[sp].d(C)[sp].d(C)[sp].d(T)[sp].d(A)[sp].d(C)[sp].[moe](A)[sp].[moe](G)[sp].[moe](C)}$$$$V2.0”, the target mRNA inhibition (HepG2, 0.07 µM) was 38% and 34%.

As to “RNA1{[moe](A)[sp].[moe](A)[sp].[moe](T)[sp].d(T)[sp].d(T)[sp].d(A)[sp].d(T)[sp].d(G)[sp].d(C)[sp].d(C)[sp].d(T)[sp].d(A)[sp].d(C)[sp].[cEt](A)[sp].[cEt](G)[sp].[cEt](C)}$$$$V2.0”, the target mRNA inhibition (HepG2, 0.07 µM) is 47% and 36%.

For “RNA1{[moe](A)[sp].[moe](A)[sp].d(C)[sp].d(C)[sp].d(A)[sp].d(C)[sp].d(T)[sp].d(G)[sp].d(A)[sp].d(A)[sp].d(C)[sp].[moe](A)[sp].[moe](A)[sp].[moe](A)[sp].[moe](T)[sp].[moe](G)[sp].[moe](G)}$$$$V2.0”, for the setting “HepG2, 0.07 µM”, the target mRNA inhibition was 67% and 59%.

As to “RNA1{[moe](A)[sp].[moe](A)[sp].d(C)[sp].d(T)[sp].d(G)[sp].d(G)[sp].d(A)[sp].d(G)[sp].d(C)[sp].d(C)[sp].d(A)[sp].[moe](C)[sp].[moe](C)[sp].[moe](A)[sp].[moe](G)[sp].[moe](C)[sp].[moe](A)}$$$$V2.0”, for the setting “HepG2, 0.07 µM”, the target mRNA inhibition was 68% and 53%.

On to “RNA1{[moe](A)[sp].[moe](A)[sp].d(T)[sp].d(T)[sp].d(T)[sp].d(A)[sp].d(T)[sp].d(G)[sp].d(C)[sp].d(C)[sp].d(T)[sp].[moe](A)[sp].[moe](C)[sp].[moe](A)[sp].[moe](G)[sp].[moe](C)}$$$$V2.0”, for which the target mRNA inhibition (HepG2, 0.07 µM) was 27% and 19%.

Turning to “RNA1{[moe](A)[sp].[moe](C)[sp].[moe](C)[sp].d(A)[sp].d(C)[sp].d(T)[sp].d(G)[sp].d(A)[sp].d(A)[sp].d(C)[sp].d(A)[sp].d(A)[sp].d(A)[sp].[cEt](T)[sp].[cEt](G)[sp].[cEt](G)}$$$$V2.0”, under “HepG2, 0.07 µM”, the target mRNA inhibition was 65% and 71%.

For “RNA1{[moe](A)[sp].[moe](C)[sp].[moe](G)[sp].[moe](G)[sp].[moe](G)[sp].d(C)[sp].d(A)[sp].d(A)[sp].d(C)[sp].d(A)[sp].d(T)[sp].d(A)[sp].d(C)[sp].d(C)[sp].[moe](T)[sp].[moe](T)}$$$$V2.0”, the target mRNA inhibition (HepG2, 0.07 µM) was 56% and 46%.

For “RNA1{[moe](A)[sp].[moe](C)[sp].[moe](G)[sp].d(G)[sp].d(G)[sp].d(C)[sp].d(A)[sp].d(A)[sp].d(C)[sp].d(A)[sp].d(T)[sp].d(A)[sp].[moe](C)[sp].[moe](C)[sp].[moe](T)[sp].[moe](T)[sp].[moe](G)}$$$$V2.0”, the target mRNA inhibition (HepG2, 0.07 µM) was 43% and 34%.

Take “RNA1{[moe](A)[sp].[moe](C)[sp].[moe](G)[sp].d(G)[sp].d(G)[sp].d(C)[sp].d(A)[sp].d(A)[sp].d(C)[sp].d(A)[sp].d(T)[sp].d(A)[sp].[moe](C)[sp].[moe](C)[sp].[moe](T)[sp].[moe](T)}$$$$V2.0”: the target mRNA inhibition (HepG2, 0.07 µM) is 48% and 39%.

Consider “RNA1{[moe](A)[sp].[moe](C)[sp].[moe](G)[sp].d(G)[sp].d(G)[sp].d(C)[sp].d(A)[sp].d(A)[sp].d(C)[sp].d(A)[sp].d(T)[sp].d(A)[sp].d(C)[sp].[cEt](C)[sp].[cEt](T)[sp].[cEt](T)}$$$$V2.0”, for which the target mRNA inhibition (HepG2, 0.07 µM) is 43% and 40%.

For the substance “RNA1{[moe](A)[sp].[moe](C)[sp].[moe](T)[sp].[moe](A)[sp].[moe](G)[sp].[moe](T)[sp].d(A)[sp].d(A)[sp].d(A)[sp].d(C)[sp].d(T)[sp].d(G)[sp].d(A)[sp].d(G)[sp].d(C)[sp].[moe](C)[sp].[moe](A)}$$$$V2.0”, the target mRNA inhibition by setting is: (HepG2, 0.0092593 µM) 2%; (HepG2, 0.0277778 µM) 15%; (HepG2, 0.07 µM) 84% and 75%; (HepG2, 0.0833333 µM) 38%; (HepG2, 0.25 µM) 75%.

Turning to “RNA1{[moe](A)[sp].[moe](C)[sp].[moe](T)[sp].[moe](G)[sp].d(G)[sp].d(A)[sp].d(G)[sp].d(C)[sp].d(C)[sp].d(A)[sp].d(C)[sp].d(C)[sp].d(A)[sp].[moe](G)[sp].[moe](C)[sp].[moe](A)[sp].[moe](G)}$$$$V2.0”, the target mRNA inhibition (HepG2, 0.07 µM) was 40% and 41%.

“RNA1{[moe](A)[sp].[moe](C)[sp].[moe](T)[sp].d(A)[sp].d(G)[sp].d(T)[sp].d(A)[sp].d(A)[sp].d(A)[sp].d(C)[sp].d(T)[sp].d(G)[sp].[moe](A)[sp].[moe](G)[sp].[moe](C)[sp].[moe](C)[sp].[moe](A)}$$$$V2.0”: the target mRNA inhibition (HepG2, 0.07 µM) was 66% and 67%.

Consider “RNA1{[moe](A)[sp].[moe](C)[sp].[moe](T)[sp].d(G)[sp].d(G)[sp].d(A)[sp].d(G)[sp].d(C)[sp].d(C)[sp].d(A)[sp].d(C)[sp].d(C)[sp].[moe](A)[sp].[moe](G)[sp].[moe](C)[sp].[moe](A)}$$$$V2.0”, for which the target mRNA inhibition reads like this: (HepG2, 0.0092593 µM) 4%; (HepG2, 0.0277778 µM) 23%; (HepG2, 0.07 µM) 53% and 72%; (HepG2, 0.0833333 µM) 46%; (HepG2, 0.25 µM) 56%.

“RNA1{[moe](A)[sp].[moe](C)[sp].d(C)[sp].d(A)[sp].d(C)[sp].d(T)[sp].d(G)[sp].d(A)[sp].d(A)[sp].d(C)[sp].d(A)[sp].[moe](A)[sp].[moe](A)[sp].[moe](T)[sp].[moe](G)[sp].[moe](G)}$$$$V2.0”: for the setting “HepG2, 0.07 µM”, the target mRNA inhibition was 43% and 44%.

For “RNA1{[moe](A)[sp].[moe](C)[sp].d(G)[sp].d(T)[sp].d(G)[sp].d(C)[sp].d(A)[sp].d(G)[sp].d(A)[sp].d(G)[sp].d(G)[sp].[moe](T)[sp].[moe](G)[sp].[moe](A)[sp].[moe](A)[sp].[moe](G)}$$$$V2.0”, the target mRNA inhibition (HepG2, 0.07 µM) was 57% and 44%.

Consider “RNA1{[moe](A)[sp].[moe](G)[sp].[moe](A)[sp].[moe](G)[sp].[moe](G)[sp].d(T)[sp].d(G)[sp].d(A)[sp].d(A)[sp].d(G)[sp].d(C)[sp].d(G)[sp].d(A)[sp].d(A)[sp].[moe](G)[sp].[moe](T)[sp].[moe](G)}$$$$V2.0”, for which the target mRNA inhibition (HepG2, 0.07 µM) is 64% and 55%.

For “RNA1{[moe](A)[sp].[moe](G)[sp].[moe](A)[sp].[moe](G)[sp].d(G)[sp].d(T)[sp].d(G)[sp].d(A)[sp].d(A)[sp].d(G)[sp].d(C)[sp].d(G)[sp].d(A)[sp].[moe](A)[sp].[moe](G)[sp].[moe](T)[sp].[moe](G)}$$$$V2.0”, the target mRNA inhibition (HepG2, 0.07 µM) is 50% and 47%.

As to “RNA1{[moe](A)[sp].[moe](G)[sp].[moe](A)[sp].d(G)[sp].d(A)[sp].d(A)[sp].d(G)[sp].d(T)[sp].d(C)[sp].d(C)[sp].d(A)[sp].d(C)[sp].[moe](C)[sp].[moe](A)[sp].[moe](C)[sp].[moe](G)[sp].[moe](A)}$$$$V2.0”, the target mRNA inhibition (HepG2, 0.07 µM) was 59% and 56%.

As for “RNA1{[moe](A)[sp].[moe](G)[sp].[moe](A)[sp].d(T)[sp].d(G)[sp].d(A)[sp].d(G)[sp].d(G)[sp].d(C)[sp].d(A)[sp].d(T)[sp].d(A)[sp].[moe](G)[sp].[moe](C)[sp].[moe](A)[sp].[moe](G)[sp].[moe](C)}$$$$V2.0”, for the setting “HepG2, 0.07 µM”, the target mRNA inhibition is 69% and 63%.

In the case of “RNA1{[moe](A)[sp].[moe](G)[sp].[moe](C)[sp].[moe](G)[sp].d(A)[sp].d(A)[sp].d(G)[sp].d(T)[sp].d(G)[sp].d(C)[sp].d(A)[sp].d(C)[sp].d(A)[sp].[moe](C)[sp].[moe](G)[sp].[moe](G)}$$$$V2.0”, the target mRNA inhibition (HepG2, 0.0092593 µM) was 25%; the target mRNA inhibition (HepG2, 0.0277778 µM) is 37%; the target mRNA inhibition (HepG2, 0.07 µM) was 78% and 73%; the target mRNA inhibition (HepG2, 0.0833333 µM) was found to be 73%; the target mRNA inhibition (HepG2, 0.25 µM) was determined as 87%.

On to “RNA1{[moe](A)[sp].[moe](G)[sp].[moe](G)[sp].[moe](A)[sp].d(G)[sp].d(T)[sp].d(T)[sp].d(C)[sp].d(C)[sp].d(G)[sp].d(C)[sp].d(A)[sp].d(G)[sp].[moe](T)[sp].[moe](A)[sp].[moe](T)[sp].[moe](G)}$$$$V2.0”, for which, for the setting “HepG2, 0.07 µM”, the target mRNA inhibition was 74% and 50%.

“RNA1{[moe](A)[sp].[moe](G)[sp].[moe](G)[sp].[moe](C)[sp].d(A)[sp].d(T)[sp].d(A)[sp].d(G)[sp].d(C)[sp].d(A)[sp].d(G)[sp].d(C)[sp].d(A)[sp].[moe](G)[sp].[moe](G)[sp].[moe](A)[sp].[moe](T)}$$$$V2.0”: under “HepG2, 0.07 µM”, the target mRNA inhibition is 29% and 31%.

Regarding “RNA1{[moe](A)[sp].[moe](G)[sp].[moe](G)[sp].[moe](T)[sp].[moe](G)[sp].d(A)[sp].d(A)[sp].d(G)[sp].d(C)[sp].d(G)[sp].d(A)[sp].d(A)[sp].d(G)[sp].d(T)[sp].[moe](G)[sp].[moe](C)[sp].[moe](A)}$$$$V2.0”, the target mRNA inhibition (HepG2, 0.07 µM) is 73% and 56%.

On to “RNA1{[moe](A)[sp].[moe](G)[sp].[moe](G)[sp].[moe](T)[sp].[moe](G)[sp].d(A)[sp].d(A)[sp].d(G)[sp].d(C)[sp].d(G)[sp].d(A)[sp].d(A)[sp].d(G)[sp].d(T)[sp].[moe](G)[sp].[moe](C)}$$$$V2.0”, for which the target mRNA inhibition (HepG2, 0.07 µM) was 50% and 44%.

Take “RNA1{[moe](A)[sp].[moe](G)[sp].[moe](G)[sp].d(C)[sp].d(A)[sp].d(T)[sp].d(A)[sp].d(G)[sp].d(C)[sp].d(A)[sp].d(G)[sp].d(C)[sp].[moe](A)[sp].[moe](G)[sp].[moe](G)[sp].[moe](A)}$$$$V2.0”: for the setting “HepG2, 0.07 µM”, the target mRNA inhibition is 54% and 53%.

Take “RNA1{[moe](A)[sp].[moe](G)[sp].[moe](G)[sp].d(T)[sp].d(G)[sp].d(A)[sp].d(A)[sp].d(G)[sp].d(C)[sp].d(G)[sp].d(A)[sp].d(A)[sp].d(G)[sp].[cEt](T)[sp].[cEt](G)[sp].[cEt](C)}$$$$V2.0”: the target mRNA inhibition (HepG2, 0.07 µM) is 73% and 68%.

The values above are taken from the OligoGym collection.
